Source: publication PMC8016166, “Identification of a Potent and Selective 5-HT1A Receptor Agonist with In Vitro and In Vivo Antinociceptive Activity” (ACS Chemical Neuroscience, 2020)

Legend:
Male Swiss CB1 mice = assay: Formalin test; type: in vivo, mouse
Procedure: Male Swiss CB1 mice (Envigo, S. Pietro al Natisone (UD)) weighing 25–30 g were used. The animals were kept at a constant room temperature (25 ± 1 °C) under a 12:12 h light and dark cycle, with free access to food and water. Each mouse was used for only one experiment. […] All the tests were performed blind to treatment.
The formalin (5%, 10 μL; Sigma-Aldrich) was injected subcutaneously into the plantar side of the right hind paw.[68] After injection, the mice were immediately placed in a plexiglas box: the total time (in seconds) spent on licking or biting the injected hind paw was recorded every 5 min at selected intervals, 0–10 (phase I) and 10–60 (phase II) min, in the different experimental groups, as an indicator of nociceptive behavior. […] A mean response was then calculated for each phase. […] A vehicle solution containing 10% DMSO was given as a control. Morphine was used as positive control. The test compound and vehicle were […] (i.p.) administered (5 mL/kg) 15 min before the formalin. […] The data are expressed as mean values (SEM). Analyses of variance (two-way repeated measures ANOVA followed by post hoc Bonferroni test) were performed to assess significance using the Instat 3.0 software (GraphPad Software, San Diego, CA). p < 0.05 was considered significant.

[1] = system: superficial dorsal horn neurons (lamina I–II); assay: Patch-clamp recording from spinal cord slices; type: cell-based, mouse; details: for neurons showing slow outward current: voltage clamp −60 mV
Procedure: The Italian Ministry of Health approved all the experiments that were conducted on postnatal CD1 mice (P18–P25) in accordance with the Guide for the Care and Use of Laboratory Animals and the EU and Italian regulations on animal welfare. The spinal cord slices were obtained following the procedure described previously.[69],[70] Briefly, the animals were anesthetized with isoflurane and decapitated, the spinal cord and vertebrae were rapidly removed and placed in ice-cold dissecting Krebs’ solution (composition in mM:125 NaCl, 2.5 KCl, 1.25 NaH2PO4, 26 NaHCO3, 25 glucose, 6 MgCl2, 1.5 CaCl2, and 1 kynurenic acid, pH 7.4, 320 mOsm), bubbled with 95% O2, 5% CO2. The lumbar spinal cord was isolated, embedded in an agarose block (low melting point agarose 3%, Thermo Fisher Scientific, Waltham, USA), and transverse slices (500 μm thick) were obtained using a vibrating microtome (WPI, Sarasota, USA). The slices were incubated in oxygenated incubation Krebs’ solution (the same as dissecting but without kynurenic acid) at 35 °C for 30 min and used for recording. The Patch-clamp recording in whole-cell configuration was performed on lamina I–II neurons at room temperature. The slices were perfused at 2 mL/min with recording Krebs’solution (in mM: 125 NaCl, 2.5 KCl, 1.25 NaH2PO4, 26 NaHCO3, 25 glucose, 1 MgCl2, and 2 CaCl2, pH 7.4, 320 mOsm). Recordings of post-synaptic currents (EPSCs) were performed in voltage clamp, by using an intracellular solution with the following composition (in mM): 120 potassium methanesulfonate, 10 NaCl, 10 EGTA, 1 CaCl2, 10 HEPES, 5 ATP-Mg, pH adjusted to 7.2 with KOH, osmolarity 300 mOsm. 8-OH-DPAT was obtained from Sigma-Aldrich (Saint Louis, USA). The data were recorded and acquired using a Multiclamp 700A amplifier and the pClamp 10 software (Molecular Devices, Sunnyvale, USA). The sampling rate was 10 kHz, and the data were filtered at 2 kHz. The data were analyzed off-line using pClamp10 software and Minianalysis (Synaptosoft, USA). The data are expressed as the mean ± SEM and differences were considered significant for p < 0.05. The statistical significance for the effect on EPSC frequency was determined using the Kolmogorov–Smirnov test on individual neurons.

MDCK-MDR1 monolayers = system: MDCK-MDR1 monolayers; set-up: method as in PMID 30043643; details: cited from earlier work
hERG = target: T1, hERG (Homo sapiens, UniProt Q12809); assay: CiPA hERG QPatch assay (hERG-CHO automated patch-clamp); type: cell-based; details: human, CHO cells expressing hERG (hERG-CHO), read-out: % inhibition of tail current in hERG-CHO
T1 construct: host or cells: CHO (hERG-CHO)
T1 sequence (Q12809 whole entry): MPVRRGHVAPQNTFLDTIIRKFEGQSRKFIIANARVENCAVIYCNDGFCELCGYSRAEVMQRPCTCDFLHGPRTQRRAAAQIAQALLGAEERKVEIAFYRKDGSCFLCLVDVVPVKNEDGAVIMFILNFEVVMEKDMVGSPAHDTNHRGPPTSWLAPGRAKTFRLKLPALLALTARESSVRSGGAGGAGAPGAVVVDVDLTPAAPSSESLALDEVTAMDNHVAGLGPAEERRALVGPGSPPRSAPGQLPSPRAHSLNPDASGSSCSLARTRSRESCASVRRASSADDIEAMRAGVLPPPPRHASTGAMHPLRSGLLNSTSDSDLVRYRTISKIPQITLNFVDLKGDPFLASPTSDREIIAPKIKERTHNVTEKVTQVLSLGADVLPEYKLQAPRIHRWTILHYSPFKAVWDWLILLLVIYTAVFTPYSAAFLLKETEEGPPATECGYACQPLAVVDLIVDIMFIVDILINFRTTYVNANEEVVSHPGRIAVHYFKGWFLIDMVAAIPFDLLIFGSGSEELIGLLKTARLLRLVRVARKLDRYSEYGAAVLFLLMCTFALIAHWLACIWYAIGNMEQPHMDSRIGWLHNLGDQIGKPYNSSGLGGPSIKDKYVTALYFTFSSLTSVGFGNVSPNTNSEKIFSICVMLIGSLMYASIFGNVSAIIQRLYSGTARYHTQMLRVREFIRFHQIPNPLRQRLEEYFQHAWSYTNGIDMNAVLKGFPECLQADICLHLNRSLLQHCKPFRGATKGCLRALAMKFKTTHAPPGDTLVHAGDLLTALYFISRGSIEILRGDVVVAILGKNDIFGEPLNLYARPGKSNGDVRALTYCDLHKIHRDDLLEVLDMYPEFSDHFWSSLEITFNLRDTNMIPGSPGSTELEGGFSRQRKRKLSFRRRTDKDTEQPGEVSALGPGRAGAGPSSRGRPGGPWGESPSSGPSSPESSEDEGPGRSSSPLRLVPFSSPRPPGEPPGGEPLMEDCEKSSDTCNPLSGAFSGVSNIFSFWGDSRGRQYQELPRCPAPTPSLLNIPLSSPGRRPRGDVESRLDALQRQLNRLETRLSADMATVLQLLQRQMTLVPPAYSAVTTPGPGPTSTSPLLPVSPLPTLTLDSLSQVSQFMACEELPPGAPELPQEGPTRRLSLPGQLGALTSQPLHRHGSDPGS
Description: (§1) After whole cell configuration is achieved, the cell is held at −80 mV. A 500 ms pulse to −40 mV is delivered to measure the leaking current, which is subtracted from the tail current online. Then, the cell is depolarized to +40 mV for 500 ms and then to −80 mV over a 100 ms ramp to elicit the hERG tail current. This paradigm is delivered once every 8 s to monitor the current amplitude.
(§2) The parameters measured were the maximum tail current evoked on stepping to 40 mV and ramping back to −80 mV from the test pulse. All data were filtered for seal quality, seal drop, and current amplitude. The peak current amplitude was calculated before and after compound addition, and the amount of block was assessed by dividing the Test compound current amplitude by the Control current amplitude. Control is the mean hERG current amplitude collected 15 s at the end of the control; Test Compound is the mean hERG current amplitude collected in the presence of test compound at each concentration.

[2] = target: T2, human voltage gated potassium ion channel hERG (Homo sapiens, UniProt Q12809); assay: as above; type: cell-based; details: 0.1 and 1 μM, QPatch
T2 construct: host or cells: CHO (hERG-CHO)
T2 sequence (Q12809 whole entry): as above
Description: as §1, §2

| SMILES | analgesic effect in first and second phases of the formalin test (Male Swiss CB1 mice; 10 mg/kg i.p., formalin 5% 10 μL intraplantar) | analgesic effect after pretreatment with WAY-100635 (Male Swiss CB1 mice; 1 10 mg/kg i.p., WAY-100635 3 mg/kg i.p. 30 min before, second phase) | neurons showing sEPSC frequency decrease ([1]; 50 μM) | neurons showing slow outward current ([1]; 50 μM) | neurons showing slow outward current ([1]; bath application 10 μM) | efflux ratio (MDCK-MDR1 monolayers; MDCK-MDR1 monolayers) | permeation of MDCK-MDR1 monolayers mimicking the BBB (MDCK-MDR1 monolayers) | inhibition at 0.1 µM (hERG; 0.1 μM) | inhibition at 1 µM (hERG; 1 μM) | inhibition at 10 µM (hERG; 10 μM) | hERG inhibition [2] | neurons showing sEPSC frequency decrease ([1]; 10 μM) | neurons showing outward current in presence of naloxone ([1]; 10 μM (S)-1, naloxone present) | neurons showing significant decrease in sEPSC frequency in presence of naloxone ([1]; 10 μM (S)-1, naloxone present) | outward current in presence of WAY-100635 ([1]; (S)-1 with WAY-100635 10 μM, 7 neurons tested) |
| --- | --- | --- | --- | --- | --- | --- | --- | --- | --- | --- | --- | --- | --- | --- | --- |
| c1ccc(C2(c3ccccc3)OCC(CNCCOc3ccccc3-c3ccncc3)O2)cc1 (racemic) [rac-1, N-[(2,2-diphenyl-1,3-dioxolan-4-yl)methyl]-2-[2-(pyridin-4-yl)phenoxy]ethan-1-ammonium hydrogenoxalate] | significant analgesic effects | prevented its analgesic effect | 7 out of 23 | 5 out of 23 | not effective | low | permeate, by passive diffusion | – | – | – | – | – | – | – | – |
| c1ccc(C2(c3ccccc3)OC[C@H](CNCCOc3ccccc3-c3ccncc3)O2)cc1 [(S)-1, N-[(2,2-Diphenyl-1,3-dioxolan-4-yl)methyl]-2-[2-(pyridin-4-yl)phenoxy]ethan-1-ammonium hydrogenoxalate] | – | – | – | – | 5 out of 12 | – | – | -3.35% | 5.61% | 66.7% | does not inhibit hERG | 5 out of 12 | 5 out of 12 | 6 out of 12 | failed to evoke the outward currents |
